As usually defined, the EC50 is the concentration giving half of the maximal effect.

This is an account of results in paper PMC5965259 (Journal of medicinal chemistry, 2018).

Each structure is given as a SMILES string.

In this assay the test system is bloodstream form T. brucei Lister 427. Kind of assay: ATP–bioluminescence-based bloodstream form T. brucei cell viability assay. As to conditions: Trypanosoma brucei, 48 h, read-out: Tb427 EC50.
Consider `Cc1cc(Nc2cc(Br)cc(OCC(C)C)c2)nc(N)n1` [Compound 43, N^4-(3-Bromo-5-isobutoxyphenyl)-6-methylpyrimidine-2,4-diamine], for which the EC50 came out at 4.4 µM. On to `Cc1cc(Nc2cc(Cl)cc(C(F)(F)F)c2)nc(N)n1` [Compound 34, N^4-(3-Chloro-5-(trifluoromethyl)phenyl)-6-methylpyrimidine-2,4-diamine], for which the concentration giving a half-maximal response (EC50) is 13 µM. `Nc1nc(Nc2cc(Cl)cc(Cl)c2)cc(C(F)(F)F)n1` [Compound 14]: the EC50 was determined as 10 µM.

`Cc1cc(Nc2cc(C(C)(C)C)cc(C(C)(C)C)c2)nc(N)n1` [Compound 53, N^4-(3,5-Di-tert-butylphenyl)-6-methylpyrimidine-2,4-diamine]: the 50% effective concentration (EC50) was 4.1 µM. In the case of `CSc1ccccc1Nc1cc(C)nc(N)n1` [Compound 78], the concentration for a half-maximal effect (EC50) was above 25 µM. `CSc1cccc(Nc2cc(C)nc(N)n2)c1` [Compound 58]: the EC50 is above 25 µM. The result for `COc1ccc(-c2cc(Cl)cc(Nc3cc(C)nc(N)n3)c2)cc1` [Compound 93, N^4-(5-Chloro-4′-methoxy-[1,1′-biphenyl]-3-yl)-6-methylpyrimidine-2,4-diamine] reads 4.5 µM; that for `Cc1cc(Nc2cccc(S(F)(F)(F)(F)F)c2)nc(N)n1` [Compound 54, 6-Methyl-N^4-(3-(pentafluoro-λ^6-sulfaneyl)phenyl)pyrimidine-2,4-diamine], 14 µM. The result for `Cc1cc(Nc2cc(Cl)cc(-c3ccsc3)c2)nc(N)n1` [Compound 113, N^4-(3-Chloro-5-(thiophen-3-yl)phenyl)-6-methylpyrimidine-2,4-diamine] reads 29 µM; that for `Cc1cc(Nc2cc(Cl)cc(-c3ccc(-c4ccccc4)cc3)c2)nc(N)n1` [Compound 99, N^4-(5-Chloro-[1,1′:4′,1″-terphenyl]-3-yl)-6-methylpyrimidine-2,4-diamine], 0.91 µM; that for `Cc1cc(Nc2cc(Br)c(F)c(Br)c2)nc(N)n1` [Compound 63, N^4-(3,5-Dibromo-4-fluorophenyl)-6-methylpyrimidine-2,4-diamine], 4.6 µM. As to `CC(C)c1cc(Nc2cc(Cl)cc(Cl)c2)nc(N)n1` [Compound 10], the 50% effective concentration (EC50) amounted to 4.7 µM. For the molecule `Cc1cc(Nc2cc(Cl)cc(-c3cc4ccccc4c4ccccc34)c2)nc(N)n1` [Compound 108, N^4-(3-Chloro-5-(phenanthren-9-yl)phenyl)-6-methylpyrimidine-2,4-diamine], the EC50 was 1.8 µM. The result for `CCCCOc1cc(Br)cc(Nc2cc(C)nc(N)n2)c1` [Compound 42, N^4-(3-Bromo-5-butoxyphenyl)-6-methylpyrimidine-2,4-diamine] reads 1.9 µM; that for `Nc1nc(Nc2cc(Cl)cc(Cl)c2)cc(-c2ccccc2)n1` [Compound 11], 7.2 µM.

As for `Cc1cc(Nc2cc(Cl)cc(S(F)(F)(F)(F)F)c2)nc(N)n1` [Compound 36, N^4-(3-Chloro-5-(pentafluoro-λ^6-sulfaneyl)phenyl)-6-methylpyrimidine-2,4-diamine], the EC50 was 13 µM.

`Cc1cc(Nc2cc(Cl)cc(-c3cc4ccccc4o3)c2)nc(N)n1` [Compound 112, N^4-(3-(Benzofuran-2-yl)-5-chlorophenyl)-6-methylpyrimidine-2,4-diamine]: the concentration giving a half-maximal response (EC50) was 1.4 µM.

In the case of `Cc1cc(Nc2cc(Cl)cc(Br)c2)nc(N)n1` [Compound 32, N^4-(3-Bromo-5-chlorophenyl)-6-methylpyrimidine-2,4-diamine], the half-maximal effective concentration (EC50) is 4.7 µM. Consider `Cc1cc(Nc2cc(Cl)cc(-c3ccc4ccccc4c3)c2)nc(N)n1` [Compound 107, N^4-(3-Chloro-5-(naphthalen-2-yl)phenyl)-6-methylpyrimidine-2,4-diamine], for which the EC50 is 1.7 µM. The result for `Cc1cc(Nc2cc(Cl)c(OC(F)F)c(Cl)c2)nc(N)n1` [Compound 68, N^4-(3,5-Dichloro-4-(difluoromethoxy)phenyl)-6-methylpyrimidine-2,4-diamine] reads 4.5 µM. Then `Nc1cnccc1Nc1cc(Cl)cc(Cl)c1` [Compound 22, N^4-(3,5-Dichlorophenyl)pyridine-3,4-diamine], with 18 µM.
